# Assays:
# Ivyleaf Morning Glory = experiment: Example 2: post emergence treatments on soybean plots, control of Ivyleaf Morning Glory; type: in vivo; set-up: scale not given here
# Text: (§1) In order to determine the efficacy of combinations of pyroxasulfone and lactofen, numerous treatments were applied to plots in an area with abundant Palmer Amaranth and Ivyleaf Morning Glory growth. Soybeans were planted approximately 22 days before treatment. Treatments were applied with a backpack sprayer with a size 6 nozzle at a pace of 3 miles per hour during dry conditions. Each treatment was done in triplicate. Treatments were applied with a water volume of 20 gallons per acre applied at 40 PSI with a ground speed of 3 MPH. At the time of treatment, Palmer Amaranth plants were approximately 2 to 6 inches tall, and Ivyleaf Morning Glory was approximately 3 to 6 inches tall. Effect of Pyroxasulfone and Lactofen Treatments on Palmer Amaranth” and “Table 3. Effect of Pyroxasulfone and Lactofen Treatments on Ivyleaf Morning Glory.”
# Soybeans = experiment: Example 2: phytotoxicity of the treatments on soybeans; conditions: soybean, in vivo, 28 days after treatment
# Text: as §1
# Applicants also evaluated the phototoxicity of the treatments on soybeans. […] Effect of Pyroxasulfone and Lactofen Treatments on Soybeans,” there were no phytotoxic effects 28 days following treatments.
# Palmer Amaranth [1] = experiment: Example 1: post emergence treatments on field plots with Palmer Amaranth; type: in vivo; conditions: COC 1% v/v
# Text: In order to determine the efficacy of combinations of pyroxasulfone and lactofen, numerous treatments were applied to plots in an area with abundant Palmer Amaranth growth. Treatments were applied to Palmer that were between 1 and 2 inches tall with a water volume of 20 gallons per acre applied at 35 PSI with a ground speed of 3 MPH. Treatments were repeated 10 days after the first application on another set of plots with Palmer 3 to 12 inches tall with a water volume of 20 gallons per acre applied at 35 PSI with a ground speed of 3 MPH.
# The number of living Palmer Amaranth plants was evaluated at 7, 18, 24, and 38 days following the first treatment and 8, 14, and 28 days following the second treatment. Effect of Pyroxasulfone and Lactofen Treatments on Palmer Amaranth.”
# Palmer Amaranth [2] = experiment: Example 2: post emergence treatments on soybean plots, control of Palmer Amaranth; type: in vivo; set-up: scale not given here
# Text: as §1
# weeds = conditions: as a post emergence treatment, applied alone; previous studies; cited from earlier work
# [3] = plot 2, Pyroxasulfone 0.213 lb ai/a
structure (smiles),measurement,setting,value
"CCOC(=O)C(C)OC(=O)c1cc(Oc2ccc(C(F)(F)F)cc2Cl)ccc1[N+](=O)[O-] (racemic) [Lactofen, ethyl O-[5-(2-chloro-α,α,α-trifluoro-p-tolyloxy)-2-nitrobenzoyl]-DL-lactate]",Effect on Ivyleaf Morning Glory 6 DAT,"Ivyleaf Morning Glory; plot 8, Lactofen 8 fl oz/a",61.7
same,Effect on Ivyleaf Morning Glory 14 DAT,"Ivyleaf Morning Glory; plot 8, Lactofen 8 fl oz/a",48.3
same,Effect on Ivyleaf Morning Glory 28 DAT,"Ivyleaf Morning Glory; plot 8, Lactofen 8 fl oz/a",20.0
same,Effect on Ivyleaf Morning Glory 6 DAT,"Ivyleaf Morning Glory; plot 9, Lactofen 10.0 fl oz/a",71.7
same,Effect on Ivyleaf Morning Glory 14 DAT,"Ivyleaf Morning Glory; plot 9, Lactofen 10.0 fl oz/a",58.3
same,Effect on Ivyleaf Morning Glory 28 DAT,"Ivyleaf Morning Glory; plot 9, Lactofen 10.0 fl oz/a",20.0
same,Effect on Ivyleaf Morning Glory 6 DAT,"Ivyleaf Morning Glory; plot 10, Lactofen 12.5 fl oz/a",68.3
same,Effect on Ivyleaf Morning Glory 14 DAT,"Ivyleaf Morning Glory; plot 10, Lactofen 12.5 fl oz/a",56.7
same,Effect on Ivyleaf Morning Glory 28 DAT,"Ivyleaf Morning Glory; plot 10, Lactofen 12.5 fl oz/a",23.3
same,Effect on Soybeans (phytotoxicity) 28 DAT,Soybeans,0.0
same,Palmer Amaranth (% Control) 7 DAT,"Palmer Amaranth [1]; plot 3, Lactofen 12.5 fl oz/a",66.0%
same,Palmer Amaranth (% Control) 8/18 DAT,"Palmer Amaranth [1]; plot 3, Lactofen 12.5 fl oz/a",97.7%
same,Palmer Amaranth (% Control) 14/24 DAT,"Palmer Amaranth [1]; plot 3, Lactofen 12.5 fl oz/a",97.7%
same,Palmer Amaranth (% Control) 28/38 DAT,"Palmer Amaranth [1]; plot 3, Lactofen 12.5 fl oz/a",99.0%
same,Effect on Palmer Amaranth 6 DAT,"Palmer Amaranth [2]; plot 8, Lactofen 8 fl oz/a",86.7
same,Effect on Palmer Amaranth 14 DAT,"Palmer Amaranth [2]; plot 8, Lactofen 8 fl oz/a",65.0
same,Effect on Palmer Amaranth 28 DAT,"Palmer Amaranth [2]; plot 8, Lactofen 8 fl oz/a",46.7
same,Effect on Palmer Amaranth 6 DAT,"Palmer Amaranth [2]; plot 9, Lactofen 10.0 fl oz/a",84.7
same,Effect on Palmer Amaranth 14 DAT,"Palmer Amaranth [2]; plot 9, Lactofen 10.0 fl oz/a",68.3
same,Effect on Palmer Amaranth 28 DAT,"Palmer Amaranth [2]; plot 9, Lactofen 10.0 fl oz/a",46.7
same,Effect on Palmer Amaranth 6 DAT,"Palmer Amaranth [2]; plot 10, Lactofen 12.5 fl oz/a",85.0
same,Effect on Palmer Amaranth 14 DAT,"Palmer Amaranth [2]; plot 10, Lactofen 12.5 fl oz/a",71.7
same,Effect on Palmer Amaranth 28 DAT,"Palmer Amaranth [2]; plot 10, Lactofen 12.5 fl oz/a",43.3
"Cn1nc(C(F)(F)F)c(CS(=O)(=O)C2=NOC(C)(C)C2)c1OC(F)F [Pyroxasulfone, 5-(difluoromethoxy)-1-methyl-3-(trifluoromethyl)pyrazol-4-ylmethyl 4,5-dihydro-5,5-dimethyl-1,2-oxazol-3-yl sulfone]",Palmer Amaranth (% Control) 7 DAT,Palmer Amaranth [1]; [3],66.9%
same,Palmer Amaranth (% Control) 8/18 DAT,Palmer Amaranth [1]; [3],85.0%
same,Palmer Amaranth (% Control) 14/24 DAT,Palmer Amaranth [1]; [3],45.0%
same,Palmer Amaranth (% Control) 28/38 DAT,Palmer Amaranth [1]; [3],61.7%
same,post emergence activity,weeds,poor activity

# Reference: patent US20140135220A1, “Methods for post emergent weed control with Pyroxasulfone and Lactofen” (Valent U.S.A., Corporation, priority 2012, published 2014)
